# Source: patent US9187406B2 (The Research Foundation of State University of New York, priority 2009, dated 2015)
# Like-named read-outs stand apart in the source and are kept apart here.
# What was measured:
# purified human PMN MMP-8 = purified human PMN MMP-8 (Homo sapiens (Human), UniProt P22894); experiment: MMP-8 inhibition, synthetic octapeptide substrate, tripeptide product by HPLC; type: biochemical
# [1] = Extractability/recovery from human serum by HPLC
# Experimental: Detection of compounds & extractability/recovery from human serum (for future use to determine in vivo pharmacokinetics) was achieved using HPLC. The HPLC detection method is briefly described herein. 50 μl of buffer or human serum containing 166.67 μM, 16.67 μM and 1.67 μM of the compounds were incubated with 100 μl pre-cooled (−10° C.) extraction solvent containing CAN-MeOH-0.5M oxalic acid at a ratio of 60:30:10. The mixture was vortexed and centrifuged at 10,000 rpm for 10 min. The supernatant was then aliquoted and injected into an HPLC for analysis. Stock solutions of the compounds were made 100× in DMSO, then further diluted with buffer or serum.
# human monocytes [2] = experiment: Cytotoxicity in human monocytes (MTS); type: cell-based
# Experimental: (§1) Briefly, human peripheral blood monocytes (HMs) were isolated from a leukocyte concentrate by density gradient centrifugation (Lymphoprep) and the isolated HMs cultured (2 h, 37° C.) to remove non-adherent cells. The adherent HMs were cultured for 18 h (1×10^6 cells/well, 24-well plates)±endotoxin (LPS)±different compounds dissolved in DMSO (the final concentration of DMSO in the RPMI serum-free culture media with Pen./Strep. antibiotics was no greater than 0.5%). After incubation, the proinflammatory cytokines, TNFα, IL-1β, MCP-1 and IL-6 were measured in the conditioned media by ELISA and cytotoxicity was assessed by measuring the absorbance (490 nm) of formazan produced by reduction of MTS. The HMs alone ±0.1-0.5% DMSO produced minimal levels of these pro-inflammatory cytokines. However, addition of 100 ng/ml or 10 μg/ml of LPS both dramatically stimulated cytokine production.
# MCP-1, TNFα, VEGF = experiment: Cytokine and growth factor levels in LPS-challenged human monocytes, Luminex multiplex; type: cell-based; conditions: 2 μM, FIG. 2
# Experimental: The cytokine levels were measured by Luminex multiplex, a method that allows the simultaneous measurement of different biological markers.
# p38 MAP kinase = p38 MAP kinase activation; type: cell-based, human; conditions: preliminary studies
# [3] = target: MMP-9 (human leukocyte gelatinase) (Homo sapiens (Human), UniProt P14780); experiment: MMP-9 inhibition in vitro, octapeptide/HPLC; type: biochemical
# Source text: In contrast all three chemically-modified curcumins at 100 μm final concentration inhibited gelatinase activity by 68-100% (FIG. 6 and Table 6).
# [4] = target: chromatographically-purified MMP-2 (Homo sapiens (Human), UniProt P08253); experiment: MMP-2 inhibition in vitro, octapeptide/HPLC; type: biochemical
# [5] = Solubility in aqueous solutions; type: physicochemical
# [6] = Diabetic rat model, 1-week oral treatment: serum glucose; type: in vivo; conditions: diabetic rats, 100 mg/kg oral once/day for 7 days
# Source text: The purpose of the following was to establish an in vivo model of excessive collagen degradation to be used to test efficacy of the compounds of the subject invention. Male Sprague-Dawley rats (typically 300-400 gms of body weight), specific viral antibody free, were ordered from Charles River. Following general anesthesia via isoflurane anesthetic inhalation, diabetes was induced by an I.V. administration of streptozotocin (STZ) (50* mg/kg body weight) (Sigma Chemical Co., St Louis, Mo., USA) diluted in 0.9% citrated saline (pH 4.5), after 12 hours of fasting. After the streptozotocin injection, the animals were given free access to water and food. […] In this test, the test-paper color changes to dark brown which indicates glycosuria.
# The latter assays were carried out using Western blot analysis with monoclonal antibodies to MMP-8.
# [7] = target: MMP-2 (72 kDa gelatinase) (Rattus norvegicus (Rat), UniProt P33436); experiment: Diabetic rat model, 1-week oral treatment: plasma MMP-2 by gelatin zymography; type: in vivo; conditions: diabetic rats, 100 mg/kg oral once/day for 7 days
# [8] = target: T1, MMP-9 (92 kDa gelatinase) (Rattus norvegicus (Rat), UniProt P50282); experiment: Diabetic rat model, 1-week oral treatment: plasma MMP-9 by gelatin zymography; type: in vivo; conditions: diabetic rats, 100 mg/kg oral once/day for 7 days
# diabetic rats = experiment: Diabetic rat model, 1-week oral treatment: diabetic adverse events; type: in vivo; conditions: 100 mg/kg oral once/day for 7 days, n = 6
# [9] = Diabetic rat model, 3-week oral treatment: blood glucose and hemoglobin A1c; type: in vivo; conditions: diabetic rats, 100 mg/kg and 500 mg/kg oral daily, 3 weeks
# Experimental: (§2) At the end of the treatment protocol, the rats were sacrificed, blood samples were collected, and whole skin (except over limbs) and gingiva were dissected (the skin, because of ample quantities of tissue were analyzed for each rat separately; the gingiva, because of the tiny amounts that could be harvested per rat, were pooled for each experimental group, as prescribed previously for tetracycline studies (30). In addition, the jaw bones were collected, defleshed, and bone loss around the teeth analyzed morphometrically as described previously (42, 43).
# [10] = target: T1, MMP-9 (92 kDa gelatinase); experiment: Diabetic rat model, 3-week oral treatment: gingival MMP-9 by gelatin zymography; type: in vivo; conditions: diabetic rats, 100 mg/kg and 500 mg/kg oral daily, 3 weeks
# Experimental: as §2
# (§3) This appearance of MMP-9 only in the gingiva (FIG. 10), but not the skin (FIG. 12), of the diabetic rats is likely the result of the oral bacteria inducing inflammation in the gingiva of these immune-suppressed UD rats, whereas the skin is not exposed to this onslaught of bacteria particularly the anaerobic gram-negative bacteria in the mouth that cause periodontal and gingival inflammation.
# MMP-2 (gelatinase A) = MMP-2 (gelatinase A) (Rattus norvegicus (Rat), UniProt P33436); experiment: Diabetic rat model, 3-week oral treatment: gingival MMP-2 by gelatin zymography; type: in vivo; conditions: diabetic rats, oral daily, 3 weeks
# Experimental: as §2, §3
# IL-1β = experiment: Diabetic rat model, 3-week oral treatment: gingival IL-1β by ELISA; type: in vivo; conditions: 3 weeks
# Experimental: as §2
# [11] = tested on: alveolar (periodontal) bone loss in diabetic rats; experiment: Diabetic rat model, 3-week oral treatment: alveolar bone loss, morphometric; type: in vivo; conditions: 3 weeks
# Experimental: as §2
# Alveolar bone loss (the signature pathologic event in inflammatory periodontal disease) was assessed in the defleshed jaws of the compound 1-treated (TX) and untreated rats.
# MMP-2 [12] = target: MMP-2 (Rattus norvegicus (Rat), UniProt P33436); experiment: Diabetic rat model, 3-week oral treatment: skin MMP-2 by ELISA; type: in vivo; conditions: both low and high doses, 3 weeks
# Experimental: as §2
# [13] = tested on: neonatal rat ventricular myocytes; experiment: Hydrogen peroxide induced LDH release; type: cell-based; conditions: 10 μM, H2O2 100 μM
# Experimental: (§4) Test compounds and concentrations (MMP inhibitors, MMPi): • 1. GM-6001: 10 μM • 2. ONO-4817: 10 μM • 3.
# Neonatal rat ventricular myocytes, serum starved for 24 h, were treated with the inhibitors 1 h prior to the addition of 100 μM of hydrogen peroxide (Sigma). LDH release in the conditioned media was quantified using CytoTox-ONE Homogeneous Membrane Integrity Assay reagent (Promega) at the indicated time points.
# [14] = tested on: caspase-3 activity in neonatal rat ventricular myocytes; experiment: Doxorubicin mediated caspase-3 activity; type: cell-based; conditions: 10 μM, doxorubicin 500 nM, 6 h and 24 h
# Experimental: as §4
# Neonatal rat ventricular myocytes, serum starved for 24 h, were treated with the inhibitors 1 h prior to the addition of 500 nM of doxorubicin (Sigma). At the indicated time points cells were washed with ice-cold phosphate buffered saline and lysed using RIPA buffer (Pierce) containing protease and phosphatase inhibitors (Sigma). Caspase-3 activity in the cell lysates was measured by incubation with 7-amino-4-trifluoromethyl coumarin (Enzo).
# [15] = target: MMP-9 generated by PC-3 human prostate cancer cells (Homo sapiens (Human), UniProt P14780); experiment: MMP-9 in conditioned media of PC-3 cells, gelatin zymography and Western blot; type: cell-based; conditions: 10 μM and 20 μM, 48 hr, serum-free media
# Experimental: Compound 1 was evaluated in a cell culture model of cancer. […] After the incubation, aliquots of the conditioned media were assayed for MMP-9 (gelatinase B) by either of two techniques, gelatin zymography (in the presence of 2 or 10 mMCa^++) and Western blot (both assays used purified MMP-9, 92 kDa gelatinase, as a standard).
# human monocytes [16] = experiment: Cytotoxicity in human monocytes (MTS); type: cell-based; remark: listed apart in the source
# TNF-α = TNF-α production by LPS-stimulated monocytes (ELISA); type: cell-based, human
# Experimental: as §1
# MMP-2 [17] = target: MMP-2 (Mus musculus (Mouse), UniProt P33434); conditions: 15 μM; cited from earlier work
# purified human PMN MMP-8, sequence (P22894 101-467): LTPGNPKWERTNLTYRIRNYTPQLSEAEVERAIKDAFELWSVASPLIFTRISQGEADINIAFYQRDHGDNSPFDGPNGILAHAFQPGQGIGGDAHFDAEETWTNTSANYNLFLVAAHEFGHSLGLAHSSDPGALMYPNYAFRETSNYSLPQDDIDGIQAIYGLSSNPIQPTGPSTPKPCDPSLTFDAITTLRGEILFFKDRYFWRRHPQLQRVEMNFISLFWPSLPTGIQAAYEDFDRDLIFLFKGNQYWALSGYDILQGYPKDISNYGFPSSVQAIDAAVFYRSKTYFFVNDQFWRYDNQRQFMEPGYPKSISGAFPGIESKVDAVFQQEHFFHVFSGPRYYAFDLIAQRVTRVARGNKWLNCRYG
# chromatographically-purified MMP-2, sequence (P08253 110-660): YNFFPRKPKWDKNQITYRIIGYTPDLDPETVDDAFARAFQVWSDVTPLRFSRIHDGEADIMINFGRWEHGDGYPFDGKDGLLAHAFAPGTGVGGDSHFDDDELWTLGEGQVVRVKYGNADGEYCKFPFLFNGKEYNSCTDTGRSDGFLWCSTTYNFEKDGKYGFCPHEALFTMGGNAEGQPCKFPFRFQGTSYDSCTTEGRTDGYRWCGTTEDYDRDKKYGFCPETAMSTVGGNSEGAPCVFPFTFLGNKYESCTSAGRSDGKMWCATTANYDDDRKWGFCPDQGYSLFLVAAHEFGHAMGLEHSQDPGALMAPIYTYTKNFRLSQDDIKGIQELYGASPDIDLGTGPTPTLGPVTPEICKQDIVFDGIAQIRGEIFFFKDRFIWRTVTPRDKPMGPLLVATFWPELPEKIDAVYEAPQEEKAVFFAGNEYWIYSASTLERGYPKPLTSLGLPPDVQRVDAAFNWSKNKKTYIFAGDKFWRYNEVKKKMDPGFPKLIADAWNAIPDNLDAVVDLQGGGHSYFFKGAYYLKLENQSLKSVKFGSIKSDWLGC
# MMP-9 (human leukocyte gelatinase), sequence (P14780 94-707): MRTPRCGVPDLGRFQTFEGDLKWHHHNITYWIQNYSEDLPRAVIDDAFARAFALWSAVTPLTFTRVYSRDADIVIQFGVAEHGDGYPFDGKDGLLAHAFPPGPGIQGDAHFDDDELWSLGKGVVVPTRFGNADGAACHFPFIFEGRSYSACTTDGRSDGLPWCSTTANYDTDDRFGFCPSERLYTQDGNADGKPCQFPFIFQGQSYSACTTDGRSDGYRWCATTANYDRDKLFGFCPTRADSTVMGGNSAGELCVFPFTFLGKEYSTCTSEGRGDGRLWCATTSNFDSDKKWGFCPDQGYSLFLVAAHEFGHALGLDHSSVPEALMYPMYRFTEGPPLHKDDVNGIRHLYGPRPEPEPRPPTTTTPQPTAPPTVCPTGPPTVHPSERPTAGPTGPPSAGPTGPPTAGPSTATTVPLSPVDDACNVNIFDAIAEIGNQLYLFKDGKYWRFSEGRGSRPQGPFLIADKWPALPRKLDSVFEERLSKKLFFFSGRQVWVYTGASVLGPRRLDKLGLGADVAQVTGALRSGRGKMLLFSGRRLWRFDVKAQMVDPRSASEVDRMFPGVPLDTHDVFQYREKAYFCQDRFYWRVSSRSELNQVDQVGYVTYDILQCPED
compound,measurement,setting,value
"COC(=O)C(C(=O)/C=C/c1ccc(O)c(OC)c1)C(=O)/C=C/c1ccc(O)c(OC)c1 [Compound 1, 1,7-Bis(4-hydroxy-3-methoxyphenyl)-4-methoxycarbonylhepta-1E,6E-dien-3,5-dione]",IC50,"purified human PMN MMP-8; Example 7 experiment, 1 mM Ca++, 37° C., read-out: IC50, human neutrophil collagenase (MMP-8)",10 µM
same,IC50 against purified hMMP-8,purified human PMN MMP-8; Table 1 experiments,"equivalent to that of 1,10-O-phenanthroline"
same,IC50,"purified human PMN MMP-8; Table 1 experiments, read-out: IC50 against purified hMMP-8",35 µM
same,Recovery from human serum,[1]; human,76-80%
same,Cytotoxicity Monocytes @ 18 h incubation,human monocytes [2]; 25 uM,25 uM- 45.5%
same,Cytotoxicity Monocytes @ 18 h incubation,human monocytes [2]; 50 uM,50 uM- 53%
same,"Reduction of proinflammatory cytokines and growth factors (MCP-1, TNFα, VEGF)","MCP-1, TNFα, VEGF",potent in reducing proinflammatory cytokines such as MCP-1 and TNFα and growth factors such as VEGF
same,Effect on p38 MAP kinase activation,p38 MAP kinase,little/no effect
same,IC50,[3],16 µM
same,"Maximum Inhibition @ 100 μM, MMP-2",[4]; 100 μM,78%
same,IC50,[4]; read-out: IC50 MMP-2,48 µM
same,Solubility in aqueous solutions (comparative),[5],more soluble than the insoluble natural product curcumin
same,Effect on severity of hyperglycemia (serum glucose),[6],no effect on the severity of hyperglycemia
same,Plasma MMP-2 level,[7],reduced the excessive levels of MMPs to essentially normal levels
same,Plasma MMP-9 level,[8],reduced the excessive levels of MMPs to essentially normal levels
same,Description of AEs,diabetic rats,Minor inflamed sclera
same,Incidence of Adverse Events (AEs),diabetic rats,1/6
same,Effect on blood glucose and hemoglobin A1c levels,[9],no significant effect
same,MMP-9 level in gingiva,[10],reduced MMP-9 to the undetectable levels
same,Pro- and activated-forms of MMP-2 in gingiva,MMP-2 (gelatinase A),neither diabetes nor compound 1 appeared to have a detectable effect
same,Reduction of IL-1β in gingiva vs untreated diabetic,IL-1β; higher oral dose (500 mg/kg),95%
same,Reduction of IL-1β in gingiva vs untreated diabetic,IL-1β; lower oral dose (100 mg/kg),about 18%
same,Reduction in alveolar bone loss vs untreated groups,"[11]; 100 mg/kg oral, p<0.05",~60%
same,Reduction in alveolar bone loss vs untreated groups,[11]; 500 mg/kg oral,less effective
same,Reduction of elevated MMP-2 level in skin (ELISA),MMP-2 [12],28%
same,LDH release,[13]; 6 h,24286±930
same,Effect on LDH release,[13]; 24 h,less dramatic effect
same,Effect on caspase-3 activity mediated by doxorubicin,[14],"None of the MMP inhibitors, including compound 1, negatively modulate caspase-3 activity"
same,Production and/or activity of MMP-9,[15],inhibited the production and/or activity of MMP-9
same,Cytotoxicity Monocytes @ 5 h incubation,human monocytes [16]; 2 uM,2 uM- 0%
same,Cytotoxicity Monocytes @ 5 h incubation,human monocytes [16]; 10 uM,10 uM- 0%
same,Cytotoxicity Monocytes @ 5 h incubation,human monocytes [16]; 25 uM,25 uM- 33%
COc1cc(/C=C/C(=O)CC(=O)/C=C/c2ccc(O)c(OC)c2)ccc1O [curcumin],Recovery from human serum,[1]; HPLC after solvent extraction,83-94%
same,recovery,"[1]; human, human serum",83 to 94%
same,Cytotoxicity Monocytes @ 18 h incubation,human monocytes [2]; 10 uM,10 uM- 0%
same,Cytotoxicity Monocytes @ 18 h incubation,human monocytes [2]; 20 uM,20 uM- 20%
same,Cytotoxicity Monocytes @ 18 h incubation,human monocytes [2]; 50 uM,50 uM- 77%
same,Cytotoxicity in human monocyte culture,human monocytes [2]; 50 and 100 μM,significant cytotoxicity
same,Decrease of TNFα production by endotoxin-stimulated human monocytes,TNF-α; 10 and 20 μM,no effect
same,Decrease of TNFα production by endotoxin-stimulated human monocytes,TNF-α; 50 and 100 μM,80-90%
same,IC50,[3],29 µM
same,"Maximum Inhibition At 100 μM compound, MMP-9",[3]; 100 μM,58%
same,IC50,[4],85 µM
same,Solubility in aqueous solutions (comparative),[5],insoluble
same,Cytotoxicity Monocytes @ 5 h incubation,human monocytes [16]; 10 uM,10 uM- 0%
same,Cytotoxicity Monocytes @ 5 h incubation,human monocytes [16]; 20 uM,20 uM- 20%
same,Cytotoxicity Monocytes @ 5 h incubation,human monocytes [16]; 50 uM,50 uM- 50%
same,Effect on MMP-2 activity,MMP-2 [17],significant inhibitory effect
